Test results as given in patent publication US9617262B2, “Antibacterial cyclopental[C]pyrrole substituted 3,4-dihydro-1H-[1,8]naphthyridinones” (Janssen Sciences Ireland UC, priority 2011, dated 2017).
In brackets after ≈: the same amount, converted by molar mass.

What was measured:
[1] = system: Staphylococcus aureus NRS120; LZD-R; assay: Antimicrobial spectrum, broth microdilution MIC; format: cell-based; conditions: S. aureus NRS120
Protocol: (§1) Minimum Inhibitory Concentrations (MICs) were determined in accordance with the Clinical and Laboratory Standards Institute (CLSI) methodology against aerobic bacteria (CLSI M07-A8) (see Clinical and Laboratory Standards Institute. 2009. Methods for dilution antimicrobial susceptibility tests for bacteria that grow aerobically. CLSI document M07-A8, Vol. 29, No. 2.) by the broth microdilution method with cation-adjusted Mueller-Hinton broth (CA-MHB) medium for the majority of organisms, except for Haemophilus influenza, where Haemophilis test medium (HTM) broth was used. Descriptions of the individual organisms can be found in the table. Where possible, ATCC standard strains were tested.
(§2) The inoculum density for the susceptibility testing was standardized to give a final inoculum of approximately 5×10^5 CFU/mL.
(§3) Stock solutions of the compounds were prepared in DMSO at concentrations of 1 mg/mL. Linezolid was prepared in DMSO at a concentration of 2 mg/mL. Stock solutions of all compounds were diluted into CA-MHB to give a range of two-fold dilutions, depending upon the sensitivity of the organism being tested.

[2] = system: Staphylococcus aureus ATCC 29213; reference strain MSSA; assay: Antimicrobial spectrum, broth microdilution MIC; format: cell-based; conditions: S. aureus ATCC 29213
Protocol: as §1, §2, §3

[3] = system: Escherichia coli ATCC 25922; reference strain; assay: Antimicrobial spectrum, broth microdilution MIC; format: cell-based; conditions: E. coli ATCC 25922
Protocol: as §1, §2, §3

[4] = system: Staphylococcus aureus NRS121; LZD-R; assay: Antimicrobial spectrum, broth microdilution MIC; format: cell-based; conditions: S. aureus NRS121
Protocol: as §1, §2, §3

[5] = system: Haemophilus influenzae ATCC 49247; reference strain; assay: Antimicrobial spectrum, broth microdilution MIC; format: cell-based; conditions: H. influenza ATCC 49247
Protocol: as §1, §2, §3

[6] = system: Escherichia coli Tol C mutant; assay: Antimicrobial spectrum, broth microdilution MIC; format: cell-based; conditions: E. coli tolC mutant
Protocol: as §1, §2, §3

[7] = system: Staphylococcus aureus NRS119; LZD-R; assay: Antimicrobial spectrum, broth microdilution MIC; format: cell-based; conditions: S. aureus NRS119
Protocol: as §1, §2, §3

[8] = system: Staphylococcus aureus ATCC 43300; reference strain MRSA; assay: Antimicrobial spectrum, broth microdilution MIC; format: cell-based; conditions: S. aureus ATCC 43300
Protocol: as §1, §2, §3

[9] = system: Moraxella catarrhalis ATCC 8176; b-lactamase negative; assay: Antimicrobial spectrum, broth microdilution MIC; format: cell-based; conditions: M. catarrhalis ATCC 8176
Protocol: as §1, §2, §3

[10] = system: Staphylococcus aureus ATCC 29213; assay: Antibacterial susceptibility testing: IC90 determination (STA); format: cell-based; conditions: STA ATCC 29213, 90% inhibitory concentration for bacterial growth
Protocol: The following bacteria were used: Staphylococcus aureus ATCC 29213, methicillin-resistant Staphylococcus aureus (MRSA) ATCC 700788 and Escherichia coli ATCC 35218. The bacteria used in this study were grown overnight in flasks containing 100 ml Mueller-Hinton broth (Difco cat. nr. 0757-17) in sterile de-ionized water, with shaking, at 37° C. Stocks were store at −70° C. until use.
Bacteria were incubated on a tryptic soy agar plate containing 5% sheep blood (Becton Dickinson cat. nr. 254053) for 18-24 hours at 35° C. in aerobic conditions (first passage). For the second passage, fresh Mueller-Hinton broth is inoculated with 5-10 colonies and grown overnight at 35° C. until turbidity (reaching log-phase) in aerobic conditions is reached. The bacterial suspension is then adjusted to 0.5 McFarland density and further diluted 1:100 in Mueller Hinton broth medium. This is used as inoculum.
MIC assays were performed by the broth microdilution method in a 96-well format (flat-bottom microtitre plates) with a final volume of 0.1 ml Mueller Hinton broth containing two-fold serial dilutions of compounds and inoculated with 5×10^5 CFU/ml of bacteria (standard inoculum size according to CLSI guidelines). Inhibitors are typically varied over the range of 63 to 0.49 μM. The final DMSO concentration in the assay was 1.25% (maximum tolerable DMSO concentration=6%). In the assays where the effect of human serum on the activity of the compounds against S. aureus was tested, human serum was added at a final concentration of 10%. The plates were incubated at 35° C. for 16-20 hours. At the end of incubation the bacterial growth was quantified fluorometrically. For this, resazurin was added to all wells and the plates were re-incubated. The incubation time is dependent on the type of bacteria. A change in color from blue to pink indicated the growth of bacteria. The fluorescence was read in computer-controlled fluorometer (Fluoroskan Ascent FL, Labsystems) at an excitation wavelength 540 nm and an emission wavelength of 590 nm. The % growth inhibition achieved by the compounds was calculated according to standard methods. The IC90 (expressed in μg/ml) was defined as the 90% inhibitory concentration for bacterial growth. A panel of reference compounds were simultaneously tested for QC approval.

[11] = system: Human HelaM cells; assay: Cytotoxicity MTT assay (TOX HELAM); format: cell-based; conditions: 72 hours
Protocol: Cytotoxicity of the compounds was evaluated using the MTT assay. Human HelaM cells grown in 96-well plates were exposed to serial dilutions of the tested compounds (final volume of 0.2 ml) and incubated for 72 hours at 37° C. and 5% CO2. Inhibitors are typically varied over the range of 25 to 0.8 μM. The final DMSO concentration in the assay is 0.5%. MTT (3-(4,5-Dimethylthiazol-2-yl)-2,5-diphenyltetrazolium bromide, a tetrazole) was added and reduced to purple formazan only in living cells. Solubilization of the formazan crystals was achieved by adding 100 μl 2-propanol. Cell viability was determined by measuring the absorbance of the reduced formazan, giving a purple color, at 540 nm and 690 nm. The absorbance measured at 690 nm was automatically subtracted from the absorbance at 540 nm, to eliminate the effects of non-specific absorption. The percent cytotoxicity achieved by the compounds was calculated according to standard methods. Cytotoxicity is reported as CC50, the concentration that causes a 50% reduction in cell viability.
The results are depicted in the table D2 below (TOX HELAM).

[12] = In vivo pharmacokinetic and oral bioavailability; conditions: male Swiss mice
Protocol: The in vivo pharmacokinetics and oral bioavailability of the compound of the examples was/is investigated in male Swiss mice (fed) following single intravenous (i.v.) bolus and oral (p.o.) administration. For the i.v. and p.o. solution formulations, the compound was/is dissolved in a 20% HP-β-CD solution. The pH of the formulations was/is around pH 4. All i.v. formulations were isotonic.

Which MIC90 [1] does the source give for `O=C1CCc2cc(/C=C/C(=O)N3C[C@@H]4CC(c5ccccc5)=C[C@@H]4C3)cnc2N1` (single isomer, unassigned) [compound 14] here?
The MIC90 was 0.03 mg/L (≈ 0.0778 µM).

What about the MIC90 [2] of the same molecule?
The MIC90 was 0.03 mg/L (≈ 0.0778 µM).

And the MIC90 [3]?
The MIC90 was 4 mg/L (≈ 10.4 µM).

What about the MIC90 [4] of the same molecule?
Its MIC90 is 0.03 mg/L (≈ 0.0778 µM).

What about the MIC90 [5] of the same molecule?
The MIC90 was 0.25 mg/L (≈ 0.649 µM).

And the MIC90 [6]?
Its MIC90 is 0.25 mg/L (≈ 0.649 µM).

What about the MIC90 [7] of the same molecule?
The MIC90 was 0.03 mg/L (≈ 0.0778 µM).

What about the MIC90 [8] of the same molecule?
The MIC90 was 0.03 mg/L (≈ 0.0778 µM).

And the MIC90 [9]?
The MIC90 was 0.015 mg/L (≈ 0.0389 µM).

What about the “STA (361.159) IC90” value [10] of the same molecule?
Its value is 0.19 mg/L.

What about the “TOX HELAM (222.125) CC50” value [11] of the same molecule?
Its value is over 9.683 mg/L.

And the AUC0-inf ([12]; i.v. 2.5 mg/kg)?
The AUC0-inf was 7.464 µg·h/mL.

And the “Half life (t1/2)” value ([12]; i.v. 2.5 mg/kg)?
Its value is 2.7 h.

What about the “Plasma clearance Cl” value ([12]; i.v. 2.5 mg/kg) of the same molecule?
The value was 0.33 L/h/kg.

And the Vdz ([12]; i.v. 2.5 mg/kg)?
Its Vdz is 1.3 L/kg.

What about the C0 ([12]; i.v. 2.5 mg/kg, 20% HP-β-CD solution) of the same molecule?
Its C0 is 2.929 µg/mL.

And the Oral bioavailability ([12]; p.o. 10 mg/kg vs i.v. 2.5 mg/kg)?
Its Oral bioavailability is 72%.

What about the AUC0-inf ([12]; p.o. 10 mg/kg) of the same molecule?
Its AUC0-inf is 21.394 µg·h/mL.

And the Cmax ([12]; p.o. 10 mg/kg)?
Its Cmax is 2.95 µg/mL.

What about the “Half life (t1/2)” value ([12]; p.o. 10 mg/kg) of the same molecule?
The value was 3.2 h.

And the Tmax ([12]; p.o. 10 mg/kg)?
The Tmax was 2.0 h.
